Measurements taken from patent publication US20190336460A1, “C[…] ACID OR PHARMACEUTICALLY ACCEPTABLE SALT THEREOF AS ACTIVE INGREDIENT FOR PREVENTING OR TREATING OBESITY OR METABOLIC SYNDROMES CAUSED BY OBESITY” (KOREA FOOD RESEARCH INSTITUTE, priority 2016, published 2019).
Values joined by “and” are separate entries in the source; they are usually repeats but may differ in a detail not shown here. Identical values can stand only once.

Legend:
[1] = system: high-fat diet-induced obesity experimental animals (C57BL/6J mice); experiment: Blood analysis: serum lipid concentrations in high-fat diet-induced obesity mice; type: in vivo, mouse; conditions: for serum Cholesterol / serum HDL / serum LDL / serum Triglyceride / content of cholesterol, reduction compared with the high-fat diet control group / serum triglyceride, lower value compared with the high-fat diet control group: C57BL/6J mice, high-fat diet 13 weeks, 10 mmol; for serum Cholesterol / serum HDL / serum LDL / serum Triglyceride: oral once a day, 12 h fasted, mean ± S.D.; for LDL-cholesterol content compared with the high-fat diet control group (in words): mouse, in vivo; for content of cholesterol, reduction compared with the high-fat diet control group / serum triglyceride, lower value compared with the high-fat diet control group: oral
Procedure: (§1) In the present experiment, five-week-old C57BL/6J mice were purchased from Saeron Bio (Uiwang, Korea), and acclimated for 1 week before use in the experiment. The rearing room was controlled to have a temperature of 20±2° C., a humidity of 55±10%, and a light/darkness cycle of 12 hours during the experimental period. The experimental animals were divided into 6 groups according to the randomized block design, after 1-week of normal diet. The experimental groups were classified into Group A (normal diet group; n=10), Group B (high-fat diet control group; n=10), Group C (high-fat diet+sodium formate 10 mmol; n=9), Group D (high-fat diet+sodium butyrate 10 mmol; n=9), Group E (high-fat diet+sodium propionate 10 mmol; n=8), and Group F (high-fat diet+sodium acetate 10 mmol; n=4).
(§2) Water and feed were freely accessible. Groups A and B were orally administered with physiological saline, and the other groups were orally administered with corresponding organic acids once a day (2 μg/g bodyweight). For the test groups, obesity was induced by a high-fat diet for 13 weeks, and a high-fat diet (D12492; 60% of the calories) purchased from Research Diet (USA) was used in the experiment.
(§3) The body weights of the experimental animals were measured at a fixed time once a week during the experiment. The experimental animals were fasted for 12 hours before sacrifice, and blood was collected from eyes of the experimental animals anesthetized with ether. In order to prevent the coagulation of the blood after collection, the blood was placed in anti-coagulation tubes and left in an ice bath for 20 min. The collected blood samples were centrifuged at 3000 rpm for 10 min to separate serum therefrom, and refrigerated until use in the experiment. Thereafter, the kit through an enzymatic method was purchased from Young Dong Diagnostics (Yong-In, Korea) to measure the levels of blood lipids (triglyceride, cholesterol, HDL-Cholesterol, and LDL-Cholesterol). The organs were extracted, washed with physiological saline, dehydrated with a filter bed, and then weighed.

epididymal fat cells = experiment: Size measurement of epididymal fat cells (H&E staining, Image J); type: in vivo, mouse; conditions: C57BL/6J mice, high-fat diet 13 weeks, oral, 10 mmol; compared among groups and with high-fat diet control group
Procedure: as §1, §2
The immobilized tissue was sliced into 18 μm using a cryostat microtome, and fat cells were stained by hematoxylin and eosin (H&E) fat staining. The fat cells were decolorized using 60% isopropanol after the staining, and then imaged using a digital camera under a microscope. For size analysis of fat cells, the area of fat cells was measured using Image J Software (National Institute of Health, Maryland, USA).

[2] = system: high-fat diet-induced obesity experimental animals (C57BL/6J mice); experiment: Organ weights (fat tissues, prostate, liver, spleen) in high-fat diet-induced obesity mice; type: in vivo, mouse; conditions: high-fat diet 13 weeks, 10 mmol; for Brown fat weight / Epididymal fat weight / Kidney fat weight / Subcutaneous fat weight: oral once a day, mean ± S.D.
Procedure: as §1, §2, §3
The kidney fat, epididymal fat, subcutaneous fat, brown fat, prostate, liver, and spleen were extracted immediately after blood collection from the control and experimental groups, and washed with physiological saline, subjected to surface moisture removal, and then weighed.

[3] = system: high-fat diet-induced obesity experimental animals (C57BL/6J mice); experiment: Body weight change in high-fat diet-induced obesity mice orally given organic acid salts; type: in vivo, mouse; conditions: for reduction in body weight gain compared with the high-fat diet control group / average body weight after 13 weeks of rearing: C57BL/6J mice, high-fat diet 13 weeks, oral once a day; for reduction in body weight gain compared with the high-fat diet control group: 10 mmol; for average body weight after 13 weeks of rearing: 10 mmol (2 μg/g bodyweight)
Procedure: as §1, §2, §3
The high-fat diet-induced obesity experimental animals (C57BL/6J mice) were orally administered with each 10 mmol corresponding organic acid for 13 weeks, and the weights of the mice were measured once a week during the rearing.

[4] = administered orally; cited from earlier work
[5] = oral, no significant difference

In the case of `CCCC(=O)[O-].[Na+]` [butyrate, sodium butyrate], the “serum Cholesterol” value [1] is reported as 95.63 ± 3.87^B mg/dl, the “serum HDL” value [1] is reported as 55.99 ± 0.43^B mg/dl and the “serum LDL” value [1] is reported as 24.95 ± 1.23^D mg/dl. For the same molecule, the “serum Triglyceride” value [1] was 128.01±14.72 mg/dl and 128.01 ± 14.72^B mg/dl, the “LDL-cholesterol content compared with the high-fat diet control group (in words)” value [1] was “lower values” and the “epididymal fat cell size (in words)” value (epididymal fat cells) was “smaller in that order of butyrate, propionate, formate, and acetate”. For the same molecule, the Brown fat weight [2] was 0.09 ± 0.04^A g, the Epididymal fat weight [2] was 2.00 ± 0.29^B g and the Kidney fat weight [2] was 0.71 ± 0.12^BC g. The Subcutaneous fat weight [2] was 1.16 g and 1.16 ± 0.25^B g, the “weight of epididymal fat, lower value compared with the high-fat diet control group” value ([2]; oral) was 20% and the “weight of subcutaneous fat, lower value compared with the high-fat diet control group” value ([2]; oral) was 26.58%. For the same molecule, the “reduction in body weight gain compared with the high-fat diet control group” value (shortened to “reduction in body weight gain”) [3] was 15.6% and the “average body weight after 13 weeks of rearing” value (shortened to “average body weight”) [3] was 31.25 g.
For `CC(=O)[O-].[Na+]` [acetate, sodium acetate], the “serum Cholesterol” value [1] was 114.86 ± 3.76^A mg/dl, the “serum HDL” value [1] was 61.09 ± 2.21^A mg/dl and the “serum LDL” value [1] was 32.34 ± 1.44^A mg/dl. The “serum Triglyceride” value [1] was 155.21±5.43 mg/dl and 155.21 ± 5.43^A mg/dl, the “content of cholesterol, reduction compared with the high-fat diet control group” value [1] was 7.8% and the “serum triglyceride compared with the high-fat diet control group (in words)” value ([1]; p<0.05) was “significantly higher value”. The “epididymal fat cell size (in words)” value (epididymal fat cells) was “smaller in that order of butyrate, propionate, formate, and acetate”, the Brown fat weight [2] was 0.11 ± 0.03^A g and the Epididymal fat weight [2] was 2.31 ± 0.45^AB g. For the same molecule, the Kidney fat weight [2] was 0.66 g and 0.81 ± 0.07^BAB g, the Subcutaneous fat weight [2] was 1.74 ± 0.31^A g and the “weight of epididymal fat, lower value compared with the high-fat diet control group” value ([2]; oral) was 7.6%. For the same molecule, the “weight of brown fat, higher value compared with the high-fat diet control group” value [2, 5] was 22.22%, the “weight of subcutaneous fat, higher value compared with the high-fat diet control group” value [2, 5] was 10.13% and the “average body weight” value [3] was 41.08 g. The “body weight compared with the high-fat diet control group (in words)” value ([3]; after 13 weeks, p<0.05) was “no significant difference”.
For `CCC(=O)[O-].[Na+]` [propionate, sodium propionate], the “serum Cholesterol” value [1] was 95.63 ± 5.41^B mg/dl, the “serum HDL” value [1] was 50.12 ± 1.69^C mg/dl and the “serum LDL” value [1] was 30.41 ± 0.51^B mg/dl. For the same molecule, the “serum Triglyceride” value [1] was 120.68±10.07 mg/dl and 120.68 ± 10.07^B mg/dl, the “serum triglyceride, lower value compared with the high-fat diet control group” value [1] was 7.2% and the “epididymal fat cell size (in words)” value (epididymal fat cells) was “smaller in that order of butyrate, propionate, formate, and acetate”. The Brown fat weight [2] was 0.09 ± 0.02^A g, the Epididymal fat weight [2] was 1.91 ± 0.44^B g and the Kidney fat weight [2] was 0.71 g and 0.66 ± 0.09^C g. For the same molecule, the Subcutaneous fat weight [2] was 1.07 g and 1.07 ± 0.24^B g, the “weight of epididymal fat, lower value compared with the high-fat diet control group” value ([2]; oral) was 23.6% and the “weight of subcutaneous fat, lower value compared with the high-fat diet control group” value ([2]; oral) was 32.27%. The “reduction in body weight gain” value [3] was 18.3% and the “average body weight” value [3] was 30.05 g.
In the case of `O=C[O-].[Na+]` [formate, sodium formate], the “serum Cholesterol” value [1] is reported as 79.00 ± 2.81^C mg/dl, the “serum HDL” value [1] is reported as 41.51 ± 3.56^D mg/dl and the “serum LDL” value [1] is reported as 26.24 ± 0.29^CD mg/dl. The “serum Triglyceride” value [1] was 99.48±14.18 mg/dl and 99.48 ± 14.18^C mg/dl, the “content of cholesterol, reduction compared with the high-fat diet control group” value [1] was 36.6% and the “serum triglyceride, lower value compared with the high-fat diet control group” value [1] was 23.54%. The “LDL-cholesterol content compared with the high-fat diet control group (in words)” value [1] was “lower values”, the “oral amount causing no side effect in the human body” value [4] was “up to 10 g” and the “epididymal fat cell size (in words)” value (epididymal fat cells) was “smaller in that order of butyrate, propionate, formate, and acetate”. For the same molecule, the Brown fat weight [2] was 0.09 ± 0.03^A g, the Epididymal fat weight [2] was 2.01 ± 0.24^B g and the Kidney fat weight [2] was 0.72 g and 0.72 ± 0.08^BC g. The Subcutaneous fat weight [2] was 1.08 g and 1.08 ± 0.21^B g, the “weight of epididymal fat, lower value compared with the high-fat diet control group” value ([2]; oral) was 19.6% and the “weight of subcutaneous fat, lower value compared with the high-fat diet control group” value ([2]; oral) was 31.16%. The “reduction in body weight gain” value [3] was 10.4% and the “average body weight” value [3] was 36.78 g.
